Reference: US7112579B2, “26,27-Homologated-20-EPI-2-alkyl-19-nor-vitamin D compounds” (Wisconsin Alumni Research Foundation, priority 1997, dated 2006)
Entries after “also recorded” stand apart in the source; their conditions may differ. One block for each molecule: values may come before it.

What was measured:
[1] = test system: intestinal calcium transport; assay: Intestinal calcium transport (everted sac), chronic doses 7 days i.p., vitamin D-deficient rats; type: in vivo, rat; settings: for intestinal calcium transport activity, in words: chronic 7 days, 130 and/or 260 pmol/day
Description: (§1) Male weanling rats were obtained from Sprague Dawley Co. (Indianapolis, Ind.) and fed a 0.47% calcium, 0.3% phosphorus vitamin D-deficient diet for 1 week and then given the same diet containing 0.02% calcium, 0.3% phosphorus for 2 weeks. During the last week they were given the indicated dose of compound by intraperitoneal injection in 0.1 ml 95% propylene glycol and 5% ethanol each day for 7 days. The control animals received only the 0.1 ml of 95% propylene glycol, 5% ethanol. Twenty-four hours after the last dose, the rats were sacrificed and intestinal calcium transport was determined by everted sac technique as previously described and serum calcium determined by atomic absorption spectrometry on a model 3110 Perkin Elmer instrument (Norwalk, Conn.). There were 5 rats per group and the values represent mean±SEM.
as §1, with “With respect to the data in Tables 3 and 4, male” for “Male”, “atormic” for “atomic”

[2] = target: T1, porcine intestinal vitamin D receptor (Sus scrofa, UniProt A3RGC1); assay: Competitive binding to the porcine intestinal vitamin D receptor ([3H]-1,25-(OH)2-D3 displacement); parameters: species or system pig; settings: for ability to bind the porcine intestinal vitamin D receptor, in words: FIGS. 1, 3 and 5, comparison in words
T1 construct: from tissue; host or cells: porcine intestine
T1 sequence (A3RGC1 1-427): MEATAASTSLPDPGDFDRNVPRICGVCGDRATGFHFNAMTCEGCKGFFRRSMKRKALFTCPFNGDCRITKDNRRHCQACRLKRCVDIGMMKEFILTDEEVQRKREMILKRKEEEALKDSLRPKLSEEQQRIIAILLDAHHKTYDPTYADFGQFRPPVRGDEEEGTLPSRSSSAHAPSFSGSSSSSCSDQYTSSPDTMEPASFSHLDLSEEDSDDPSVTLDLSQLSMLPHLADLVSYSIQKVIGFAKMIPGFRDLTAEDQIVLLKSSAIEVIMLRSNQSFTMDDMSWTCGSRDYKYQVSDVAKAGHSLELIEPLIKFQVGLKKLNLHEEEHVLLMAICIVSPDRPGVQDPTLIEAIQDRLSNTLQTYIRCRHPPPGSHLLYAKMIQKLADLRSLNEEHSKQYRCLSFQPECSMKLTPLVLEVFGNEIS

[3] = test system: human promyelocyte HL-60 cells; assay: Differentiation of HL-60 promyelocytes into monocytes (NBT reduction); type: cell-based; settings: for induction of differentiation of HL-60 cells to monocytes, in words: FIGS. 2, 4, 6, comparison in words
From the text: In the next assay, the cellular activity of the synthesized compounds was established by studying their ability to induce differentiation of human promyelocyte HL-60 cells into monocytes.

[4] = test system: serum calcium (bone calcium mobilization); assay: Serum calcium (bone calcium mobilization), chronic doses 7 days i.p., vitamin D-deficient rats; type: in vivo, rat; settings: for bone calcium mobilization (serum calcium) activity, in words: chronic 7 days, 130 and/or 260 pmol/day; for calcemic activity (intestinal calcium transport and bone calcium mobilization), in words: chronic doses, rats
Description: as §1
as §1, with “With respect to the data in Tables 3 and 4, male” for “Male”, “atormic” for “atomic”

[5] = test system: intestinal calcium transport; assay: Support of intestinal calcium transport in vitamin D-deficient rats on a low-calcium diet (3 weeks), 7 daily i.p. doses; type: in vivo, rat; settings: Table 7 panel 2
[6] = test system: bone calcium mobilization (serum Ca); assay: Bone calcium mobilization (serum Ca) in vitamin D-deficient rats on a low-calcium diet (3 weeks), 7 daily i.p. doses; type: in vivo, rat; settings: Table 7 panel 2
[7] = Table 4, 130 pmol/day/7 days i.p., mean±SEM, listed as 2β-Methyl-19-nor-1,25-(OH)2D3
[8] = Table 4, 260 pmol/day/7 days i.p., mean±SEM, listed as 2β-Methyl-19-nor-1,25-(OH)2D3
[9] = listed as 2β-methyl-19-nor-1,25-(OH)2D3
[10] = Table 4, 130 pmol/day/7 days i.p., mean±SEM
[11] = Table 4, 260 pmol/day/7 days i.p., mean±SEM
[12] = Table 5, 130 pmol/day/7 days i.p.
[13] = Table 5, 260 pmol/day/7 days i.p.
[14] = Table 6, analog average ED50 / ED50 for 1α,25-(OH)2D3
[15] = Table 5, 130 pmol/day/7 days i.p., listed as 2β-Hydroxymethyl-19-nor-20(S)-1,25-(OH)2D3
[16] = Table 5, 260 pmol/day/7 days i.p., listed as 2β-Hydroxymethyl-19-nor-20(S)-1,25-(OH)2D3

SMILES: CC1[C@H](O)CC(=C/C=C2\CCC[C@]3(C)[C@@H]([C@H](C)CCCC(C)(C)O)CC[C@@H]23)C[C@H]1O (stereo partly drawn) [Compound 13, 1α,25-Dihydroxy-2β-methyl-19-nor-vitamin D3]
Intestinal Calcium Transport (S/M) [1, 7]: 4.4 ± 0.8 S/M
Intestinal Calcium Transport (S/M) [1, 8]: 3.1 ± 0.9 S/M
intestinal calcium transport activity, in words [1, 9]: little, if any
receptor binding, less effective than 1α,25-(OH)2D3 ([2]; relative to 1α,25-(OH)2D3): 39 fold
induction of differentiation of HL-60 cells to monocytes, in words [3]: high potency in cellular differentiation
Serum Calcium [4, 7]: 4.1 ± 0.1 mg/100 ml
Serum Calcium [4, 8]: 3.8 ± 0.2 mg/100 ml
bone calcium mobilization (serum calcium) activity, in words [4, 9]: little, if any
calcemic activity (intestinal calcium transport and bone calcium mobilization), in words [4]: lack of calcemic activity

SMILES: CC1[C@H](O)CC(=C/C=C2\CCC[C@]3(C)[C@@H]([C@H](C)CCCC(C)(C)O)CC[C@@H]23)C[C@H]1O (stereo partly drawn) [Compound 12, 2α-methyl-19-nor-1,25-(OH)2D3]
Intestinal Calcium Transport (S/M) [1, 10]: 4.3 ± 1.0 S/M
Intestinal Calcium Transport (S/M) [1, 11]: 5.3 ± 1.3 S/M
intestinal calcium transport activity, in words [1]: some intestinal calcium transport activity
ability to bind the porcine intestinal vitamin D receptor, in words [2]: about as active as 1α,25-(OH)2D3
HL-60 differentiation, more active than corresponding 2β-isomer ([3]; 12 vs 13, 18 vs 19): 100 times
induction of differentiation of HL-60 cells to monocytes, in words [3]: extremely potent
Serum Calcium [4, 10]: 4.8 ± 0.2 mg/100 ml
Serum Calcium [4, 11]: 5.8 ± 0.5 mg/100 ml
bone calcium mobilization (serum calcium) activity, in words [4]: relatively strong bone calcium mobilization at both dose levels

SMILES: CCC(O)(CC)CCCC(C)C1CCC2C(=CC=C3CC(O)C(C)C(O)C3)CCCC21C [Compound 37, 20(S)-1α,25-Dihydroxy-2β-methyl-26,27-dihomo-19-norvitamin D3]
VDR Binding ratio [2, 14]: 5.5
EC50 ([2]; Table 6, concentration for 50% displacement of radiolabeled 1α,25-(OH)2D3, read-out: VDR Binding ED50): 4.8 nM
Ca Transport S/M (mean ± SEM) ([5]; 65 pmol daily x 7 i.p.): 4.7 ± 0.6^d^1 S/M
Ca Transport S/M (mean ± SEM) ([5]; 260 pmol daily x 7 i.p.): 5.2 ± 0.6^d^2 S/M
HL-60 Differentiation Activity ratio [3, 14]: 0.03
HL-60 Differentiation ED50 ([3]; Table 6, concentration inducing 50% maturation (NBT)): 0.11 nM
Serum Ca (mean ± SEM) ([6]; 65 pmol daily x 7 i.p.): 5.0 ± 0.0^d^1
Serum Ca (mean ± SEM) ([6]; 260 pmol daily x 7 i.p.): 9.9 ± 0.3^d^2

Continued, in another order:

ability to bind the porcine intestinal vitamin D receptor, in words [2]: almost equivalent to 1α,25-(OH)2D3
SMILES: CC(CCCC(C)(C)O)C1CCC2C(=CC=C3CC(O)C(CO)C(O)C3)CCCC21C [Compound 22, 2α-Hydroxymethyl-19-nor-20(S)-1,25-(OH)2D3]
Intestinal Calcium Transport (S/M) [1, 12]: 5.0 ± 0.3 S/M
Intestinal Calcium Transport (S/M) [1, 13]: 5.8 ± 0.4 S/M
induction of differentiation of HL-60 cells to monocytes, in words [3]: high potency in cellular differentiation
Serum Calcium [4, 12]: 4.0 ± 0.1 mg/100 ml
Serum Calcium [4, 13]: 3.9 ± 0.1 mg/100 ml
calcemic activity (intestinal calcium transport and bone calcium mobilization), in words [4]: relatively inactive; also recorded: lack of calcemic activity

receptor binding, less potent than 22 and 1α,25-(OH)2D3 ([2]; relative to 22 and 1α,25-(OH)2D3): 6–8 ×
SMILES: CC(CCCC(C)(C)O)C1CCC2C(=CC=C3CC(O)C(CO)C(O)C3)CCCC21C [Compound 23, 20(S)-1α,25-Dihydroxy-2β-(hydroxymethyl)-19-norvitamin D3]
Intestinal Calcium Transport (S/M) [1, 15]: 3.5 ± 0.7 S/M
Intestinal Calcium Transport (S/M) [1, 16]: 3.5 ± 0.3 S/M
induction of differentiation of HL-60 cells to monocytes, in words [3]: high potency in cellular differentiation
Serum Calcium [4, 15]: 3.6 ± 0.1 mg/100 ml
Serum Calcium [4, 16]: 3.5 ± 0.2 mg/100 ml
calcemic activity (intestinal calcium transport and bone calcium mobilization), in words [4]: relatively inactive; also recorded: lack of calcemic activity

ability to bind the porcine intestinal vitamin D receptor, in words [2]: about the same binding affinity as 23
SMILES: C[C@H](CCCC(C)(C)O)[C@H]1CC[C@H]2/C(=C/C=C3C[C@@H](O)C(CO)[C@H](O)C3)CCC[C@]12C (stereo partly drawn) [Compound 20, 1α,25-Dihydroxy-2α-(hydroxymethyl)-19-norvitamin D3]
